The text below walks through data of ChEMBL document CHEMBL1201862, “PubChem BioAssay data set” (2004).

What all share (test): NCI tumour cell line growth inhibition, 48 h
Experiment [1] has as its system KM12.
Experiment [2] relates to RXF 393.
The subject of experiment [3] is M14.
Experiment [4] deals with 786-0.
Experiment [5] has as its system OVCAR-3.
Experiment [6] deals with SK-MEL-28.
In experiment [7] the test system is MCF7.
Experiment [8] deals with OVCAR-8.
Experiment [9] deals with OVCAR-5.
In experiment [10] the test system is MOLT-4.
Experiment [11] relates to SNB-75.
In experiment [12] the test system is HCC 2998.
Experiment [13] deals with SW-620.
Experiment [14] has as its system OVCAR-4.
Experiment [15] has as its system UACC-257.
In experiment [16] the test system is UACC-62.
Experiment [17] concerns MDA-MB-231.
The subject of experiment [18] is DU-145.
Experiment [19] deals with BT-549.

SMILES strings stand for the structures.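 All cell lines were grown in 96-well plates and treated with compound for 48 hours. At the GI50, growth is halved.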 Active and inactive are the calls of the source. No stated cut-off is given here; in the data, active = GI50 up to about 1.1 µM and inactive = higher. Some results are limits rather than exact numbers.

Turning to `CO/C(=N\N=C\c1ccc(Cl)c(Cl)c1)c1ccncc1`, the GI50 in experiment [1], in [2], in experiment [3], in [4], in [5] and in [6] was > 10 µM (inactive) each time. The GI50 in experiment [7] is > 10 µM (inactive); in experiment [8], > 10 µM (inactive); in experiment [9], > 10 µM (inactive); in [10], > 10 µM (inactive); in experiment [11], 9.86 µM (inactive); in experiment [12] it was > 10 µM (inactive). For the same compound, the GI50 in [13] is > 10 µM (inactive).
In the case of `CCOC(=O)C(C(C)=O)C1CC=CC1` (stereo not given), the GI50 in experiment [1], in experiment [2], in experiment [3], in [14], in experiment [4] and in [5] was > 100 µM (inactive) throughout. Also, the GI50 in experiment [6], in [15], in [8], in experiment [9], in experiment [10] and in experiment [11] was > 100 µM (inactive) throughout. In addition, the GI50 in [12], in [16] and in experiment [13] was > 100 µM (inactive) throughout.
Turning to `COC(=O)[C@@H]1CN(C(=O)Cc2ccccc2)C(=O)N1`, the GI50 in experiment [1], in [2], in [3], in experiment [14], in experiment [17] and in experiment [4] was > 100 µM (inactive) in each case. Also, the GI50 in [5], in experiment [6], in experiment [15], in [8], in experiment [9] and in [10] was > 100 µM (inactive) each time. Also, the GI50 in experiment [11] was 93.8 µM (inactive); in experiment [16], > 100 µM (inactive); in experiment [13], > 100 µM (inactive); in [18], > 100 µM (inactive).
For the compound `CC(=O)O[C@H]1CC[C@]2(C=O)[C@H]3CC[C@]4(C)[C@@H](C5=CC(=O)OC5)CC[C@]4(O)[C@@H]3CC[C@]2(O)C1` [STROPHANTHIDIN ACETATE], the GI50 is 0.692 µM (active) in experiment [1]; 0.416 µM (active) in experiment [3]; 0.0998 µM (active) in experiment [14]; 0.769 µM (active) in [17]; 0.212 µM (active) in [4]; 0.144 µM (active) in experiment [19]. Also, the GI50 was 0.0982 µM (active) in [5]; 0.774 µM (active) in experiment [6]; 0.362 µM (active) in [15]; 0.267 µM (active) in experiment [8]; 0.575 µM (active) in experiment [9]; 0.0262 µM (active) in experiment [10]. The GI50 in experiment [11] is 0.601 µM (active); in experiment [12] it was 0.325 µM (active); in experiment [16], 0.353 µM (active); in [13], 0.264 µM (active); in experiment [18], 0.164 µM (active).
As for `COc1ccc(-n2c(CCCC(=O)O)nc3c2C(=O)c2ccccc2C3=O)cc1`, the GI50 in experiment [1] was 64.1 µM (inactive); in experiment [3], 15.5 µM (inactive); in [14], 53.3 µM (inactive); in [17], 63.5 µM (inactive); in experiment [4], > 100 µM (inactive); in experiment [19], 8.79 µM (inactive). The GI50 in experiment [5] is 33.3 µM (inactive); in experiment [6], > 100 µM (inactive); in [15], 27.8 µM (inactive); in [7], 32.6 µM (inactive); in [8] it was 51.3 µM (inactive); in [9] it was > 100 µM (inactive). The GI50 was 68.1 µM (inactive) in experiment [10]; 89.5 µM (inactive) in [11]; 84.7 µM (inactive) in experiment [12]; 23.4 µM (inactive) in experiment [16]; 56.9 µM (inactive) in experiment [13]; 92 µM (inactive) in experiment [18].
Regarding `CCCN(CCC)CCc1ccc(OC2=CCN(C)CC2)cc1`, the GI50 in experiment [1] is 30.4 µM (inactive); in experiment [2], > 100 µM (inactive); in experiment [3], 15.7 µM (inactive); in experiment [14], > 100 µM (inactive); in experiment [17], > 100 µM (inactive); in experiment [4], 39.9 µM (inactive). The GI50 in experiment [19] is 29.8 µM (inactive); in experiment [5], 79.3 µM (inactive); in experiment [6] it was 35.3 µM (inactive); in experiment [15] it was 20.3 µM (inactive); in experiment [7] it was > 100 µM (inactive); in experiment [8] it was 36.9 µM (inactive). The GI50 in [9] is > 100 µM (inactive); in experiment [10] it was 43.3 µM (inactive); in experiment [12] it was > 100 µM (inactive); in [16], 38 µM (inactive); in experiment [13], > 100 µM (inactive); in [18], > 100 µM (inactive).
On to `O=c1c(C(c2ccccn2)c2c(O)oc3cc(O)ccc3c2=O)c(O)oc2cc(O)ccc12`, for which the GI50 in experiment [1], in [2], in [3], in experiment [17], in [4] and in [19] was > 100 µM (inactive) each time. Further, the GI50 in [5] is > 100 µM (inactive); in [6], > 100 µM (inactive); in experiment [15], > 100 µM (inactive); in experiment [7], > 100 µM (inactive); in [8], 44.2 µM (inactive); in experiment [9], > 100 µM (inactive). Moreover, the GI50 was > 100 µM (inactive) in [10]; 66.2 µM (inactive) in [11]; > 100 µM (inactive) in experiment [12]; > 100 µM (inactive) in [16]; > 100 µM (inactive) in experiment [13]; > 100 µM (inactive) in [18].
For the compound `O=C1Cc2c(-c3ccccc3)cc(-c3ccccc3)nc2-c2ccccc2N1`, the GI50 in experiment [1] was 2.84 µM (inactive); in experiment [2], 4.61 µM (inactive); in experiment [3], 3.44 µM (inactive); in [17], 3.48 µM (inactive); in [19] it was 6.01 µM (inactive); in experiment [5] it was 5.56 µM (inactive). In addition, the GI50 was 5.12 µM (inactive) in experiment [6]; 19.6 µM (inactive) in experiment [15]; 3.56 µM (inactive) in experiment [8]; 3.54 µM (inactive) in experiment [9]; 2.59 µM (inactive) in experiment [11]; 2.71 µM (inactive) in experiment [12]. In addition, the GI50 in experiment [16] is 6.89 µM (inactive); in [13], 5.47 µM (inactive); in experiment [18], 5.82 µM (inactive).
Consider `COc1ccc(-c2c3c(nc4nc(SC)nc(SC)c24)CCCC3)cc1OC`, for which the GI50 in [1] is 81.3 µM (inactive); in experiment [2], 25.9 µM (inactive); in experiment [3], 81.7 µM (inactive); in experiment [17], 40.6 µM (inactive); in [19], > 100 µM (inactive); in experiment [5] it was 65.5 µM (inactive). The GI50 in experiment [6] was 59.7 µM (inactive); in [15] it was > 100 µM (inactive); in experiment [7] it was 41.5 µM (inactive); in [9], > 100 µM (inactive); in experiment [10], 33.4 µM (inactive); in experiment [11], 28.2 µM (inactive). Besides, the GI50 in experiment [12] is > 100 µM (inactive); in [16], 67.6 µM (inactive); in experiment [13] it was 67.5 µM (inactive); in [18], > 100 µM (inactive).
Regarding `O=c1cc(-c2nc3ccccc3[nH]2)[nH]c2nc(-c3nc4ccccc4[nH]3)cc(-c3ccc(Cl)cc3)c12`, the GI50 in experiment [1] was 22 µM (inactive); in [2], 14.5 µM (inactive); in experiment [3], 23.8 µM (inactive); in experiment [14] it was 26.1 µM (inactive); in [17] it was 15.8 µM (inactive); in experiment [19], 35.9 µM (inactive). Also, the GI50 in experiment [5] was 19.3 µM (inactive); in experiment [15], 23.7 µM (inactive); in [7] it was 12.9 µM (inactive); in experiment [8] it was 28.6 µM (inactive); in [9] it was 29 µM (inactive); in [10] it was 19.4 µM (inactive). Also, the GI50 in [16] is 14 µM (inactive); in [13], 21.5 µM (inactive); in [18], 32.8 µM (inactive).
`NC12CCC(CC1=O)C2` (stereo not given): the GI50 in experiment [1], in experiment [3], in experiment [14], in experiment [17], in [5] and in [6] was > 100 µM (inactive) each time. The GI50 in [15], in experiment [7], in [8], in experiment [9], in experiment [10] and in experiment [11] was > 100 µM (inactive) throughout. In addition, the GI50 in experiment [12], in experiment [16], in experiment [13] and in [18] was > 100 µM (inactive) each time.
Consider `OC[C@@H](O)[C@H]1NC[C@@H](O)[C@H]1O`, for which the GI50 in [1], in [2], in [3], in experiment [14], in [4] and in experiment [19] was > 100 µM (inactive) in each case. The GI50 in [5], in experiment [6], in experiment [15], in experiment [7], in experiment [8] and in experiment [9] was > 100 µM (inactive) throughout. Moreover, the GI50 in experiment [10], in experiment [11], in [12], in experiment [16], in [13] and in experiment [18] was > 100 µM (inactive) each time.
